In ChEMBL document CHEMBL5512632, “Unlocking the potential of 1,4-naphthoquinones: A comprehensive review of their anticancer properties” (Eur J Med Chem, 2024) one finds IC50 and EC50 data, which are given here for 11 compounds.

The test system of one experiment is HCC1806. The experiment is described as follows: Antiproliferative activity against human HCC1806 cells assessed as inhibition of cell growth incubated upto 120 hrs by MTS assay. The format is functional, cell-based. Particulars: HCC1806, 120 h.
For the next experiment, the system named is MDA-MB-231. The experiment is described as follows: Antiproliferative activity against human MDA-MB-231 cells assessed as inhibition of cell growth incubated upto 120 hrs by MTS assay. Particulars: MDA-MB-231, 120 h. The format is functional, cell-based. On the technique in general: Tetrazolium assays rely on reduction of a dye to a coloured formazan, in cell work by metabolically active cells.

In a further experiment the test system is Hs-578T. The experiment is described as follows: Antiproliferative activity against human Hs-578T cells assessed as inhibition of cell growth incubated upto 120 hrs by MTS assay. The format is functional, cell-based.
Experiment [1] relates to MCF7. The experiment is described as follows: Antiproliferative activity against human MCF7 cells assessed as inhibition of cell growth incubated upto 120 hrs by MTS assay. Particulars: MCF7, 120 h. The format is functional, cell-based.
For experiment [2], the system named is A549. The experiment is described as follows: Cytotoxicity against human A549 cells incubated for 20 hrs by MTT assay. It counts as functional, cell-based. Particulars: A549, 20 h.
Experiment [3] relates to A549. The experiment is described as follows: Antiproliferative activity against human A549 cells assessed as inhibition of cell growth incubated for 48 hrs by MTT reagent based microplate reader assay. The format is functional. Particulars: A549, 48 h.
The subject of experiment [4] is DU-145. The experiment is described as follows: Antiproliferative activity against human DU-145 cells assessed as inhibition of cell growth incubated for 48 hrs by MTT reagent based microplate reader assay. It counts as functional. Particulars: DU-145, 48 h.
The next experiment deals with HCT-116. The experiment can be described thus: Antiproliferative activity against human HCT-116 cells assessed as inhibition of cell growth incubated for 48 hrs by MTT reagent based microplate reader assay. It counts as functional. Particulars: HCT-116, 48 h.
In experiment [5] the test system is HeLa. The experiment is described as follows: Antiproliferative activity against human HeLa cells assessed as inhibition of cell growth incubated for 48 hrs by MTT reagent based microplate reader assay. It counts as functional.
In experiment [6] the test system is HepG2. The experiment can be described thus: Antiproliferative activity against human HepG2 cells assessed as inhibition of cell growth incubated for 48 hrs by MTT reagent based microplate reader assay. The format is functional. Particulars: HepG2, 48 h.
In a further experiment the test system is HT-29. The experiment can be described thus: Antiproliferative activity against human HT-29 cells assessed as inhibition of cell growth incubated for 48 hrs by MTT reagent based microplate reader assay. Particulars: HT-29, 48 h. The format is functional.
Experiment [7] has as its system MCF7. The experiment is described as follows: Antiproliferative activity against human MCF7 cells assessed as inhibition of cell growth incubated for 48 hrs by MTT reagent based microplate reader assay. The format is functional. Particulars: MCF7, 48 h.
The subject of another experiment is PANC-1. The experiment can be described thus: Antiproliferative activity against human PANC-1 cells assessed as inhibition of cell growth incubated for 48 hrs by MTT reagent based microplate reader assay. The format is functional. Particulars: PANC-1, 48 h.
For the next experiment, the system named is PC-3. The experiment can be described thus: Antiproliferative activity against human PC-3 cells assessed as inhibition of cell growth incubated for 48 hrs by MTT reagent based microplate reader assay. It counts as functional. Particulars: PC-3, 48 h.
Another experiment has as its system Hep 3B2. The experiment can be described thus: Cytotoxicity against human Hep3B cells assessed as inhibition of cell growth incubated for 24 hrs by MTT reagent based microplate reader assay. It counts as functional.
In experiment [8] the test system is HepG2. The experiment can be described thus: Cytotoxicity against human HepG2 cells assessed as inhibition of cell growth incubated for 24 hrs by MTT reagent based microplate reader assay. It counts as functional. Particulars: HepG2, 24 h.
The test system of the next experiment is Huh-7. The experiment can be described thus: Cytotoxicity against human Huh-7 cells assessed as inhibition of cell growth incubated for 24 hrs by MTT reagent based microplate reader assay. It counts as functional. Particulars: Huh-7, 24 h.
The subject of another experiment is SCC-9. The experiment is described as follows: Cytotoxicity against human SCC-9 cells assessed as inhibition of cell growth incubated for 48 hrs by MTT reagent based spectrophotometric analysis. Particulars: SCC-9, 48 h. It counts as functional.
Experiment [9] deals with SCC-25. The experiment is described as follows: Cytotoxicity against human SCC-25 cells assessed as inhibition of cell growth incubated for 48 hrs by MTT reagent based spectrophotometric analysis. The format is functional. Particulars: SCC-25, 48 h.
The test system of another experiment is SCC-4. The experiment can be described thus: Cytotoxicity against human SCC-4 cells assessed as inhibition of cell growth incubated for 48 hrs by MTT reagent based spectrophotometric analysis. It counts as functional. Particulars: SCC-4, 48 h.
The test system of experiment [10] is SCC-25. The experiment is described as follows: Cytotoxicity against human SCC-25 cells incubated for 48 hrs by MTT reagent based spectrophotometric analysis. It counts as functional, cell-based. Particulars: SCC-25, 48 h.
For a further experiment, the system named is T-24. The experiment can be described thus: Cytotoxicity against human T24 cells assessed as reduction in cell growth incubated for 48 hrs by MTT assay. The format is functional, cell-based. Particulars: T-24, 48 h.
Experiment [11] relates to DU-145. The experiment can be described thus: Cytotoxicity against human DU-145 cells assessed as reduction in cell growth incubated for 48 hrs by MTT assay. Particulars: DU-145, 48 h. It counts as functional, cell-based.
Experiment [12] concerns MCF7. The experiment can be described thus: Cytotoxicity against human MCF7 cells assessed as reduction in cell growth incubated for 48 hrs by MTT assay. The format is functional, cell-based. Particulars: MCF7, 48 h.
Experiment [13] has as its system MCF7. The experiment can be described thus: Cytotoxicity against human MCF7 cells incubated for 24 hrs by MTT assay. The format is functional, cell-based. Particulars: MCF7, 24 h.
The next experiment has as its system RPMI-8226. The experiment can be described thus: Cytotoxicity against human RPMI-8226 cells assessed as reduction in cell viability incubated for 72 hrs by MTT assay. It counts as functional, cell-based. Particulars: RPMI-8226, 72 h.
Experiment [14] deals with MCF7. The experiment can be described thus: Cytotoxicity against human MCF7 cells assessed as reduction in cell viability incubated for 72 hrs by MTT assay. It counts as functional, cell-based. Particulars: MCF7, 72 h.
Experiment [15] relates to HepG2. The experiment is described as follows: Cytotoxicity against human HepG2 cells assessed as reduction in cell viability incubated for 72 hrs by MTT assay. It counts as functional, cell-based. Particulars: HepG2, 72 h.
In another experiment the test system is GBM. The experiment can be described thus: Cytotoxicity against human GBM cells assessed as inhibition of cell growth incubated for 72 hrs by MTT assay. It counts as functional, cell-based.
The next experiment has as its system U-87 MG. The experiment is described as follows: Cytotoxicity against human U87 cells assessed as inhibition of cell growth incubated for 72 hrs by MTT assay. The format is functional, cell-based, U-87MG ATCC.
Experiment [16] deals with HepG2. The experiment is described as follows: Cytotoxicity against human HepG2 cells incubated for 48 hrs by MTT assay. It counts as functional, cell-based. Particulars: HepG2, 48 h.
The test system of experiment [17] is HeLa. The experiment is described as follows: Cytotoxicity against human HeLa cells incubated for 48 hrs by MTT assay. It counts as functional, cell-based.
The test system of a further experiment is CCRF-CEM. The experiment can be described thus: Antiproliferative activity against human CCRF-CEM cells assessed as inhibition of cell growth incubated for 72 hrs by resazurin assay. It counts as functional, cell-based. On the technique in general: Resazurin is reduced to fluorescent resorufin, in cell work by metabolically active cells.
Another experiment has as its system ADR5000 cell line. The experiment can be described thus: Antiproliferative activity against human ADR5000 cell line assessed as inhibition of cell growth incubated for 72 hrs by resazurin assay. The format is functional, cell-based. Particulars: ADR5000, 72 h.

By IC50 is commonly meant the concentration at which inhibition is half-maximal. `COc1ccc(OC)c2c1C(=O)C(Cl)=C(Cl)C2=O`: the IC50 in the experiment on HCC1806 was 2.68 µM; in the experiment with MDA-MB-231 it was 3.28 µM; in the experiment on Hs-578T, 1.63 µM; in the experiment on MCF7 [1], 5.5 µM.
Compound `O=C1C(Cl)=C(Nc2ccccc2)C(=O)c2ccccc21` came in with a concentration for half-maximal inhibition (IC50) with A549 [2] of 5.8 µM.
With `CCCCCCCC/C=C\CCCCCCCC(=O)Oc1cccc2c1C(=O)C=C(C)C2=O`, the IC50 with A549 [3] stood at 15.4 µM; in the experiment with DU-145 [4] it was 8.8 µM; with HCT-116, 6.5 µM; in the experiment with HeLa [5], 21 µM; in the experiment on HepG2 [6], 7.4 µM; in the experiment on HT-29, 2.9 µM. For the same compound, the IC50 amounted to 7.2 µM in the experiment with MCF7 [7], 16.1 µM in the experiment with PANC-1 and 10 µM in the experiment with PC-3.
`CCCS(=O)(=O)C12OC1C(=O)c1c(OC)ccc(OC)c1C2=O` (centres undefined): the IC50 in the experiment on Hep 3B2 turned out to be 3.89 µM; in the experiment with HepG2 [8], 5.26 µM; in the experiment with Huh-7, 7.68 µM.
For the compound `COC(=O)N(Cc1ccccc1)C(C1=C(O)C(=O)c2ccccc2C1=O)c1ccc(Cl)cc1` (centres undefined), the concentration for half-maximal inhibition (IC50) in the experiment on SCC-9 turned out to be 56.2 µM; in the experiment with SCC-25 [9], 87.3 µM; with SCC-4 it was 92.8 µM.
For the compound `CC(C)/C=C/C1=C(OCc2cn(-c3cccc(Cl)c3)nn2)C(=O)c2ccccc2C1=O`, in the experiment with SCC-25 [10], the half-maximal inhibitory concentration (IC50) came out at 9.81 µM.
Usually EC50 stands for the concentration at which the effect is half-maximal. High values mean a less potent agent, low ones a more potent agent. For the compound `O=C(C1=C(Nc2ccccc2)C(=O)c2ccccc2C1=O)c1ccco1`, the values for the concentration for half-maximal inhibition (IC50) in the experiment with T-24, in the experiment with DU-145 [11] and in the experiment with MCF7 [12] were 11.7 µM, 5.45 µM and 4.64 µM, respectively. In the experiment with MCF7 [13], this compound came in with an EC50 of 15 µM.
Consider `CCOC(=O)CCCCCNC1=C(F)C(=O)c2c(F)c(F)c(F)c(F)c2C1=O`, for which the half-maximal inhibitory concentration (IC50) in the experiment on RPMI-8226 turned out to be 2.8 µM; in the experiment on MCF7 [14], 1.4 µM; with HepG2 [15], 2.1 µM.
Regarding `CC(C)=CCC1=C(NCCCCN(CCCN)Cc2ccccc2)C(=O)c2ccccc2C1=O`, the IC50 was 6.6 µM with GBM and 4.3 µM in the experiment on U-87 MG.
Turning to `C[C@@H](CC[C@H]1O[C@H]2C[C@H]3[C@@H]4CC=C5C[C@@H](O)CC[C@]5(C)[C@H]4CC[C@]3(C)[C@H]2[C@@H]1C)COC1=C(Cl)C(=O)c2ccccc2C1=O`, the figures for the IC50 in the experiment on HepG2 [16] and in the experiment on HeLa [17] were 1.24 µM and 14.1 µM, respectively.
Take `CCOc1ccc(NC(=O)C2=C(SC(C)(C)C)C(=O)c3ccccc3C2=O)cc1`: the IC50 was determined as 1.9 µM in the experiment with CCRF-CEM and 2 µM in the experiment on ADR5000 cell line.
